{"source": "patent US6673749B1", "about": "“Use of phyllocladane diterpenoids for plant growth promotion and alleviation of growth retardant allelochemicals, and method therefor” (Council of Scientific and Industrial Research, priority 2002, dated 2004)", "assay_in_all_cases": "Seed germination and seedling shoot/root growth test in petridishes", "type_in_all_cases": "in vivo", "key": {"[1]": {"tested_on": "Triticum aestivum", "conditions": "control = 100%", "description": "(§1) As noted above the activity of phyllocladane diterpenoids used in the practice of this invention was observed when these compounds were tested for their effects on seed germination, root and shoot growth of certain plant species and their antagonistic effect on plant growth retardants by the method described by Bagchi G. D. et al Phytochemistry, 45(6)1131-1133, 1997.\n(§2) Plant growth promoting activity of calliterpenone, calliterpenone monoacetate, and calliterpenone di-acetate was examined at 0.1, 0.01 and 0.001 μM concentrations. The tests were conducted against seeds of two monocotyledonous (Hordeum vulgare and Triticum aestivum) and two dicotyledonous plants (Vigna radiata and Trigonella foenum-graecum). Control seeds were germinated in distilled water and all the observations were compared with […]. The root and shoot growth of all the plant species were affected by the phyllocladane diterpenoids, although the extent of effect varied considerably in the plant species with the chemicals and their concentrations. […] Details of the procedure adopted and results obtained are discussed in the various examples.\n(§3) 100 ml stalk solutions of 0.1 μM concentration were prepared by dissolving required amounts of various test compounds (depending upon their molecular weights) in minimum amount of ethanol or acetone and adding distilled water. From this stalk solution, 0.01 μM and 0.001 μM concentrations were prepared. Calliterpenone and calliterpenone di acetate was dissolved in 2.0 ml absolute ethanol (Merc), while; calliterpenone monoacetate, isopropylideno calliterpenone and trihydroxy calliterpenone were dissolved in 2.0 ml spectral grade acetone (Ranbaxy). The respective control test solutions of distilled water of each concentration also contained equal amount of absolute ethanol or acetone. For an assay, 10 seeds were placed on Whatman filter paper (moistened with 5.0 ml of test solution in a 9.0 cm diameter petridish (in triplicate). The pteridishes were incubated for 9 days in a germinator, maintained at 25.0±1.0° C. with 90% humidity and 4 hr light/day. At the end of incubation, observations were recorded on the seedlings in terms of germination, shoot and root growth. The data on the length of shoot and root of seedlings and number of seeds germinated in different concentrations of compounds were compared with the control, which was taken as 100%. The data thus obtained were presented in Table-1.\n(§4) Root growth of seedlings was measured in the similar way as shoot growth from the experiment as described in Example 1.\n(§5) Effect of test compounds on germination was observed from the same experiment as described in Example 1."}, "[2]": {"tested_on": "Hordeum vulgare", "conditions": "control = 100%", "description": "as §1, §2, §3, §4, §5"}, "[3]": {"tested_on": "Vigna radiata", "conditions": "Vigna radiata, control = 100%", "description": "as §1, §2, §3, §4, §5"}, "[4]": {"tested_on": "Trigonella foenum-graecum", "conditions": "for Percent (%) germination of seeds in relation to control on 9th day after sowing / Percent (%) root growth of seedlings in relation to control on 9th day after sowing / Percent (%) shoot growth of seedlings in relation to control on 9th day after sowing: Trigonella foenum graecum, control = 100%", "description": "as §1, §2, §3, §4, §5"}}}
{"smiles": "CC1(C)C(O)CCC2(C)C3CCC4CC3(CCC12)CC4(O)CO", "note": "(stereo not drawn) [Trihydroxy Phyllocladane, 30β, 16α, 17. trihydroxy phyllocladane]", "values": [{"measurement": "Percent (%) germination of seeds in relation to control on 9th day after sowing", "setting": "[1]; 0.001 μM", "value": 100, "unit": "%"}, {"measurement": "Percent (%) root growth of seedlings in relation to control on 9th day after sowing", "setting": "[1]; 0.001 μM", "value": 90, "unit": "%"}, {"measurement": "Percent (%) shoot growth of seedlings in relation to control on 9th day after sowing", "setting": "[1]; 0.001 μM", "value": 108, "unit": "%"}, {"measurement": "Percent (%) germination of seeds in relation to control on 9th day after sowing", "setting": "[1]; 0.01 μM", "value": 100, "unit": "%"}, {"measurement": "Percent (%) root growth of seedlings in relation to control on 9th day after sowing", "setting": "[1]; 0.01 μM", "value": 113, "unit": "%"}, {"measurement": "Percent (%) shoot growth of seedlings in relation to control on 9th day after sowing", "setting": "[1]; 0.01 μM", "value": 112, "unit": "%"}, {"measurement": "Percent (%) germination of seeds in relation to control on 9th day after sowing", "setting": "[1]; 0.1 μM", "value": 100, "unit": "%"}, {"measurement": "Percent (%) root growth of seedlings in relation to control on 9th day after sowing", "setting": "[1]; 0.1 μM", "value": 111, "unit": "%"}, {"measurement": "Percent (%) shoot growth of seedlings in relation to control on 9th day after sowing", "setting": "[1]; 0.1 μM", "value": 116, "unit": "%"}, {"measurement": "Percent (%) germination of seeds in relation to control on 9th day after sowing", "setting": "[2]; 0.001 μM", "value": 100, "unit": "%"}, {"measurement": "Percent (%) root growth of seedlings in relation to control on 9th day after sowing", "setting": "[2]; 0.001 μM", "value": 145, "unit": "%"}, {"measurement": "Percent (%) shoot growth of seedlings in relation to control on 9th day after sowing", "setting": "[2]; 0.001 μM", "value": 102, "unit": "%"}, {"measurement": "Percent (%) germination of seeds in relation to control on 9th day after sowing", "setting": "[2]; 0.01 μM", "value": 100, "unit": "%"}, {"measurement": "Percent (%) root growth of seedlings in relation to control on 9th day after sowing", "setting": "[2]; 0.01 μM", "value": 112, "unit": "%"}, {"measurement": "Percent (%) shoot growth of seedlings in relation to control on 9th day after sowing", "setting": "[2]; 0.01 μM", "value": 108, "unit": "%"}, {"measurement": "Percent (%) germination of seeds in relation to control on 9th day after sowing", "setting": "[2]; 0.1 μM", "value": 100, "unit": "%"}, {"measurement": "Percent (%) root growth of seedlings in relation to control on 9th day after sowing", "setting": "[2]; 0.1 μM", "value": 106, "unit": "%"}, {"measurement": "Percent (%) shoot growth of seedlings in relation to control on 9th day after sowing", "setting": "[2]; 0.1 μM", "value": 109, "unit": "%"}, {"measurement": "Percent (%) germination of seeds in relation to control on 9th day after sowing", "setting": "[3]; 0.001 μM", "value": 100, "unit": "%"}, {"measurement": "Percent (%) root growth of seedlings in relation to control on 9th day after sowing", "setting": "[3]; 0.001 μM", "value": 100, "unit": "%"}, {"measurement": "Percent (%) shoot growth of seedlings in relation to control on 9th day after sowing", "setting": "[3]; 0.001 μM", "value": 136, "unit": "%"}, {"measurement": "Percent (%) germination of seeds in relation to control on 9th day after sowing", "setting": "[3]; 0.01 μM", "value": 150, "unit": "%"}, {"measurement": "Percent (%) root growth of seedlings in relation to control on 9th day after sowing", "setting": "[3]; 0.01 μM", "value": 102, "unit": "%"}, {"measurement": "Percent (%) shoot growth of seedlings in relation to control on 9th day after sowing", "setting": "[3]; 0.01 μM", "value": 145, "unit": "%"}, {"measurement": "Percent (%) germination of seeds in relation to control on 9th day after sowing", "setting": "[3]; 0.1 μM", "value": 150, "unit": "%"}, {"measurement": "Percent (%) root growth of seedlings in relation to control on 9th day after sowing", "setting": "[3]; 0.1 μM", "value": 93, "unit": "%"}, {"measurement": "Percent (%) shoot growth of seedlings in relation to control on 9th day after sowing", "setting": "[3]; 0.1 μM", "value": 132, "unit": "%"}, {"measurement": "Effect on shoots (in words)", "setting": "[4]; T. foenum-graecum, all dilutions tested", "value": "proved toxic"}, {"measurement": "Percent (%) germination of seeds in relation to control on 9th day after sowing", "setting": "[4]; 0.001 μM", "value": 63, "unit": "%"}, {"measurement": "Percent (%) root growth of seedlings in relation to control on 9th day after sowing", "setting": "[4]; 0.001 μM", "value": 55, "unit": "%"}, {"measurement": "Percent (%) shoot growth of seedlings in relation to control on 9th day after sowing", "setting": "[4]; 0.001 μM", "value": 53, "unit": "%"}, {"measurement": "Percent (%) germination of seeds in relation to control on 9th day after sowing", "setting": "[4]; 0.01 μM", "value": 75, "unit": "%"}, {"measurement": "Percent (%) root growth of seedlings in relation to control on 9th day after sowing", "setting": "[4]; 0.01 μM", "value": 68, "unit": "%"}, {"measurement": "Percent (%) shoot growth of seedlings in relation to control on 9th day after sowing", "setting": "[4]; 0.01 μM", "value": 72, "unit": "%"}, {"measurement": "Percent (%) germination of seeds in relation to control on 9th day after sowing", "setting": "[4]; 0.1 μM", "value": 88, "unit": "%"}, {"measurement": "Percent (%) root growth of seedlings in relation to control on 9th day after sowing", "setting": "[4]; 0.1 μM", "value": 82, "unit": "%"}, {"measurement": "Percent (%) shoot growth of seedlings in relation to control on 9th day after sowing", "setting": "[4]; 0.1 μM", "value": 84, "unit": "%"}]}
